From ChEMBL document CHEMBL1201862, “PubChem BioAssay data set” (2004)
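Dose response: 5 concentrations. Exposure: 48 h. Format: 96-well plates. Endpoint: linear interpolation; highest concentration if not reached. GI50 is the concentration that inhibits growth by half.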 Calls of active or inactive are those of the source. Cut-off read from the data, not from the text of the source: active = GI50 up to about 1.1 µM and inactive = higher.

How the values were obtained:
Experiment in all cases: growth of human tumour cells (NCI), 48 h
HT-29 = tested on: HT-29
HCT-15 = tested on: HCT-15
IGROV-1 = tested on: IGROV-1
EKVX = tested on: EKVX
SF-268 = tested on: SF-268
SK-OV-3 = tested on: SK-OV-3
CCRF-CEM = tested on: CCRF-CEM
NCI/ADR-RES = tested on: NCI/ADR-RES
HOP-92 = tested on: HOP-92
RPMI-8226 = tested on: RPMI-8226
MDA-MB-435 = tested on: MDA-MB-435
M14 = tested on: M14
SW-620 = tested on: SW-620
RXF 393 = tested on: RXF 393
A498 = tested on: A498
LOX IMVI = tested on: LOX IMVI
OVCAR-8 = tested on: OVCAR-8
ACHN = tested on: ACHN
NCI-H522 = tested on: NCI-H522
NCI-H23 = tested on: NCI-H23

Row | SMILES | GI50 (HT-29) | GI50 (HCT-15) [µM] | GI50 (IGROV-1) | GI50 (EKVX) | GI50 (SF-268) | GI50 (SK-OV-3) | GI50 (CCRF-CEM) | GI50 (NCI/ADR-RES) | GI50 (HOP-92) | GI50 (RPMI-8226) | GI50 (MDA-MB-435) | GI50 (M14) | GI50 (SW-620) | GI50 (RXF 393) | GI50 (A498) | GI50 (LOX IMVI) | GI50 (OVCAR-8) | GI50 (ACHN) | GI50 (NCI-H522) | GI50 (NCI-H23)
1 | c1ccc(C2C3=C(c4ccccc4CC3)N3c4cc5c(cc4=NC34CCCCC24)Nc2ccccc2N=5)cc1 (stereo not drawn) | 7.87 µM (inactive) | 8.39 | > 10 µM (inactive) | > 10 µM (inactive) | > 10 µM (inactive) | > 10 µM (inactive) | 1.67 µM (inactive) | 6.79 µM (inactive) | 7.64 µM (inactive) | 5.11 µM (inactive) | 7.28 µM (inactive) | 6.61 µM (inactive) | 9.64 µM (inactive) | 6.59 µM (inactive) | 7.38 µM (inactive) | 8.04 µM (inactive) | > 10 µM (inactive) | 7.26 µM (inactive) | 1 µM (active) | 9.2 µM (inactive)
2 | OC1CN2CCS[C@H]2C(O)C1O (stereo partly drawn) | > 100 µM (inactive) | > 100 | > 100 µM (inactive) | > 100 µM (inactive) | > 100 µM (inactive) | > 100 µM (inactive) | > 100 µM (inactive) | > 100 µM (inactive) | > 100 µM (inactive) | > 100 µM (inactive) | > 100 µM (inactive) | > 100 µM (inactive) | > 100 µM (inactive) | > 100 µM (inactive) | > 100 µM (inactive) | > 100 µM (inactive) | > 100 µM (inactive) | > 100 µM (inactive) | > 100 µM (inactive) | > 100 µM (inactive)
3 | COc1cc2c(cc1OC)CC1c3cc(OC)c(OC)cc3CCN1CC2 (stereo not drawn) | 27.5 µM (inactive) | > 100 | 52.8 µM (inactive) | > 100 µM (inactive) | 42.1 µM (inactive) | > 100 µM (inactive) | > 100 µM (inactive) | 63.2 µM (inactive) | 69.3 µM (inactive) | 41.8 µM (inactive) | 40.3 µM (inactive) | > 100 µM (inactive) | 84.1 µM (inactive) | 83.6 µM (inactive) | > 100 µM (inactive) | – | 95.5 µM (inactive) | 1.64 µM (inactive) | > 100 µM (inactive) | 0.101 µM (active)
4 | O=C(/C=C/c1ccc2c(c1)OCO2)Cc1nc2ccccc2[nH]c1=O | 28.5 µM (inactive) | 8.95 | 21 µM (inactive) | 31.9 µM (inactive) | 18.4 µM (inactive) | 18.6 µM (inactive) | 35.8 µM (inactive) | 22.1 µM (inactive) | 20.7 µM (inactive) | 28.1 µM (inactive) | 20 µM (inactive) | 11.7 µM (inactive) | 30.4 µM (inactive) | 17.9 µM (inactive) | 20.3 µM (inactive) | 3.52 µM (inactive) | 28.5 µM (inactive) | 13.6 µM (inactive) | > 100 µM (inactive) | 29.8 µM (inactive)
5 | COc1nn(Cc2ccccn2)c2ccc([N+](=O)[O-])cc12 | 70.6 µM (inactive) | 62.7 | 35.1 µM (inactive) | 56.1 µM (inactive) | > 100 µM (inactive) | > 100 µM (inactive) | 76.2 µM (inactive) | 64.4 µM (inactive) | 20.7 µM (inactive) | 54.8 µM (inactive) | 32.7 µM (inactive) | > 100 µM (inactive) | 63 µM (inactive) | 42.4 µM (inactive) | 30.3 µM (inactive) | 53.6 µM (inactive) | > 100 µM (inactive) | 48.6 µM (inactive) | 47.8 µM (inactive) | > 100 µM (inactive)
6 | CCOC(=O)c1cc(NC(=O)c2ccccc2)c(=O)n2c(cc3c(Cl)cccc32)c1O | > 100 µM (inactive) | > 100 | > 100 µM (inactive) | > 100 µM (inactive) | > 100 µM (inactive) | > 100 µM (inactive) | 95.5 µM (inactive) | > 100 µM (inactive) | > 100 µM (inactive) | 80.4 µM (inactive) | > 100 µM (inactive) | > 100 µM (inactive) | > 100 µM (inactive) | > 100 µM (inactive) | > 100 µM (inactive) | > 100 µM (inactive) | > 100 µM (inactive) | > 100 µM (inactive) | > 100 µM (inactive) | > 100 µM (inactive)
7 | C=C(C)C(=O)OC1C(C(C)CCCO)=C(CO)CC2OC(=O)C(=C)C21 (stereo not drawn) | 18.3 µM (inactive) | 13.3 | 15.6 µM (inactive) | 24.6 µM (inactive) | 17.1 µM (inactive) | 29 µM (inactive) | 12.6 µM (inactive) | 33.5 µM (inactive) | 16.7 µM (inactive) | 17.1 µM (inactive) | 19.9 µM (inactive) | 16.3 µM (inactive) | 14.7 µM (inactive) | 13.8 µM (inactive) | 17.1 µM (inactive) | 10.1 µM (inactive) | 18.8 µM (inactive) | 24.1 µM (inactive) | 3.44 µM (inactive) | 19.3 µM (inactive)
8 | CO/C(C)=N/CCC1=CCCCC1 | > 100 µM (inactive) | > 100 | > 100 µM (inactive) | > 100 µM (inactive) | > 100 µM (inactive) | > 100 µM (inactive) | – | > 100 µM (inactive) | > 100 µM (inactive) | > 100 µM (inactive) | > 100 µM (inactive) | > 100 µM (inactive) | > 100 µM (inactive) | > 100 µM (inactive) | > 100 µM (inactive) | – | > 100 µM (inactive) | > 100 µM (inactive) | > 100 µM (inactive) | > 100 µM (inactive)
9 | COc1ccccc1N1CCN(CCCN2C(C(=O)c3ccccc3)=C(O)c3c(C)cc(C)nc3S2(=O)=O)CC1 | 34.8 µM (inactive) | 56.6 | 72.1 µM (inactive) | 37 µM (inactive) | 42.5 µM (inactive) | 85.9 µM (inactive) | 52.5 µM (inactive) | 50.4 µM (inactive) | 22.6 µM (inactive) | – | > 100 µM (inactive) | 90.4 µM (inactive) | 89.7 µM (inactive) | 5.28 µM (inactive) | > 100 µM (inactive) | 13.4 µM (inactive) | 64.1 µM (inactive) | 89.1 µM (inactive) | 32.2 µM (inactive) | > 100 µM (inactive)
10 | O=C(O)c1cc2cc(OCc3ccccc3)ccc2[nH]1 | – | > 100 | > 100 µM (inactive) | > 100 µM (inactive) | > 100 µM (inactive) | > 100 µM (inactive) | > 100 µM (inactive) | > 100 µM (inactive) | 23.6 µM (inactive) | > 100 µM (inactive) | > 100 µM (inactive) | > 100 µM (inactive) | > 100 µM (inactive) | > 100 µM (inactive) | 87.5 µM (inactive) | > 100 µM (inactive) | > 100 µM (inactive) | > 100 µM (inactive) | > 100 µM (inactive) | > 100 µM (inactive)
11 | CO/C(=N\N=C(/c1ccccc1)C(F)(F)F)c1ccncc1 | 42.8 µM (inactive) | 27.5 | 63.2 µM (inactive) | – | – | 46.3 µM (inactive) | 17.4 µM (inactive) | 20.3 µM (inactive) | 53.2 µM (inactive) | 27.6 µM (inactive) | 18.8 µM (inactive) | 52.6 µM (inactive) | – | 16.3 µM (inactive) | 87.5 µM (inactive) | – | 69.5 µM (inactive) | – | 26.6 µM (inactive) | 36.2 µM (inactive)
12 | CNC(=O)OCC1C2=C(C(=O)C(C)=C(N)C2=O)N2CC3C(N3C)C12OC (stereo not drawn) | 10.3 µM (inactive) | 12.1 | 12.4 µM (inactive) | > 100 µM (inactive) | – | 28.9 µM (inactive) | 3.76 µM (inactive) | 32.5 µM (inactive) | 23.7 µM (inactive) | 23.8 µM (inactive) | 38.1 µM (inactive) | 7.24 µM (inactive) | 10.8 µM (inactive) | 21.3 µM (inactive) | 15.3 µM (inactive) | 9.91 µM (inactive) | 11.4 µM (inactive) | 3.8 µM (inactive) | 3.19 µM (inactive) | 1.53 µM (inactive)
13 | Cc1cc(Cc2c(C)c(C)c(Cc3cc(C)cc(C(C)(C)C)c3O)c(C)c2C)c(O)c(C(C)(C)C)c1 | > 100 µM (inactive) | > 100 | > 100 µM (inactive) | > 100 µM (inactive) | > 100 µM (inactive) | > 100 µM (inactive) | – | > 100 µM (inactive) | > 100 µM (inactive) | > 100 µM (inactive) | > 100 µM (inactive) | > 100 µM (inactive) | > 100 µM (inactive) | > 100 µM (inactive) | > 100 µM (inactive) | > 100 µM (inactive) | > 100 µM (inactive) | > 100 µM (inactive) | > 100 µM (inactive) | –
14 | N#CCCN(CCNc1ccccc1)C(=O)Nc1ccc(NC(=O)N(CCC#N)CCNc2ccccc2)cc1 | > 100 µM (inactive) | > 60.3 | – | > 100 µM (inactive) | > 47.4 µM (inactive) | > 65.6 µM (inactive) | – | > 63.8 µM (inactive) | > 45.9 µM (inactive) | > 100 µM (inactive) | > 100 µM (inactive) | > 100 µM (inactive) | > 100 µM (inactive) | > 45.3 µM (inactive) | > 100 µM (inactive) | 51.1 µM (inactive) | > 73.8 µM (inactive) | > 100 µM (inactive) | 21.1 µM (inactive) | > 68.4 µM (inactive)
15 | COc1cccc(-c2cc(O)c3cccnc3n2)c1 | 0.0543 µM (active) | 0.0873 | 0.432 µM (active) | – | 0.611 µM (active) | – | 0.0603 µM (active) | 0.0617 µM (active) | 0.0776 µM (active) | 0.195 µM (active) | 0.0164 µM (active) | 0.0575 µM (active) | 0.0809 µM (active) | 0.229 µM (active) | 0.516 µM (active) | 0.0867 µM (active) | 0.235 µM (active) | 0.179 µM (active) | 0.0698 µM (active) | 0.204 µM (active)
